The results in this text go back to patent US11685732B2, “MYST family histone acetyltransferase inhibitors” (Epizyme, Inc., priority 2017, dated 2023).

One experiment has as its target KAT-5 (Homo sapiens (Human), UniProt Q92993). Kind of experiment: KAT-5 biochemical inhibition assay (SAMDI mass spectrometry). In a few lines:
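Acetylation of 1 μM peptide by 9 nM enzyme with 0.5 μM acetyl-CoA (final) was run 90 min at 25° C in Tris pH 8.0 buffer with DTT, after compound preincubation at 2% DMSO. Formic acid stopped the reaction, and product was quantified by SAMDI mass spectrometry to derive IC50.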

The next experiment has as its target KAT-6A (Homo sapiens (Human), UniProt Q92794). In words: KAT-6A biochemical inhibition assay (SAMDI mass spectrometry). The method in brief:
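IC50 values came from SAMDI time-of-flight mass spectrometry after formic acid quench (0.5% final). Acetylation ran 90 min at 25 °C with 1 μM acetyl coenzyme A and 1 μM peptide substrate, following compound pre-incubation with 12.5 nM KAT-6A in Tris buffer pH 8.0 containing DTT, 2% DMSO final.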

For a further experiment, the target named is KAT-7 (Homo sapiens (Human), UniProt O95251). In words: KAT-7 biochemical inhibition assay (SAMDI mass spectrometry). In a few lines:
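Read-out was SAMDI time-of-flight MS of formic acid-quenched reactions (0.5% final). Compound dilutions (2% DMSO final) were pre-incubated with 6 nM KAT-7 in 50 mM Tris pH 8.0 with 1 mM DTT, then given 1 μM peptide substrate and 2 μM acetyl-CoA for 120 min at 25 °C. IC50 values were derived.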

The next experiment addresses KAT-8 (Homo sapiens (Human), UniProt Q9H7Z6). Kind of experiment: KAT-8 biochemical inhibition assay (SAMDI mass spectrometry). In a few lines: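 Acetylation of 1 μM peptide substrate with 5 μM acetyl-CoA by 12.5 nM enzyme, compound pre-incubated, 2% DMSO, Tris pH 8.0 buffer with DTT, 25 °C for 90 min. Quench with 0.5% formic acid; product read by SAMDI mass spectrometry to give IC50.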

KAT-6A, sequence (Q92794 other isoform, or with tags, fused parts or gaps): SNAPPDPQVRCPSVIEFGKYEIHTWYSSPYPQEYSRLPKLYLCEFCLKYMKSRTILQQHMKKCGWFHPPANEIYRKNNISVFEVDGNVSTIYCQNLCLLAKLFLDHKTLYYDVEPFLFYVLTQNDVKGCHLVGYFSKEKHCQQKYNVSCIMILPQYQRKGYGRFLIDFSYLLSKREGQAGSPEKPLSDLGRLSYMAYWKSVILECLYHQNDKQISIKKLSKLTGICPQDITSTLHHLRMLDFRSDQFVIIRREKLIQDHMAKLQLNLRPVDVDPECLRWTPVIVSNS
KAT-8, sequence (Q9H7Z6 other isoform, or with tags, fused parts or gaps): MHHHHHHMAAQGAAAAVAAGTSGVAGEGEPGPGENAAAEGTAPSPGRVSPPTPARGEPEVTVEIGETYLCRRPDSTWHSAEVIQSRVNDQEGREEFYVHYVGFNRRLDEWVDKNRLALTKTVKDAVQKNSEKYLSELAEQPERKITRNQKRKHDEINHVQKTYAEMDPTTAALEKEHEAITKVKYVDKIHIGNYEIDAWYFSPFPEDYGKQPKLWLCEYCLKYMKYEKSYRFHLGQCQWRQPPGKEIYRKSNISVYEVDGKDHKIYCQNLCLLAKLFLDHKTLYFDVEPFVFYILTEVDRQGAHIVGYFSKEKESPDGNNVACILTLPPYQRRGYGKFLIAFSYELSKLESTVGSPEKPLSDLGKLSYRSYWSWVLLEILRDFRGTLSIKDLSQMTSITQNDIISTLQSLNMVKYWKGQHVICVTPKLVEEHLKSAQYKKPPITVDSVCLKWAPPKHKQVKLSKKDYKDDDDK
KAT-7, sequence (O95251 other isoform, or with tags, fused parts or gaps): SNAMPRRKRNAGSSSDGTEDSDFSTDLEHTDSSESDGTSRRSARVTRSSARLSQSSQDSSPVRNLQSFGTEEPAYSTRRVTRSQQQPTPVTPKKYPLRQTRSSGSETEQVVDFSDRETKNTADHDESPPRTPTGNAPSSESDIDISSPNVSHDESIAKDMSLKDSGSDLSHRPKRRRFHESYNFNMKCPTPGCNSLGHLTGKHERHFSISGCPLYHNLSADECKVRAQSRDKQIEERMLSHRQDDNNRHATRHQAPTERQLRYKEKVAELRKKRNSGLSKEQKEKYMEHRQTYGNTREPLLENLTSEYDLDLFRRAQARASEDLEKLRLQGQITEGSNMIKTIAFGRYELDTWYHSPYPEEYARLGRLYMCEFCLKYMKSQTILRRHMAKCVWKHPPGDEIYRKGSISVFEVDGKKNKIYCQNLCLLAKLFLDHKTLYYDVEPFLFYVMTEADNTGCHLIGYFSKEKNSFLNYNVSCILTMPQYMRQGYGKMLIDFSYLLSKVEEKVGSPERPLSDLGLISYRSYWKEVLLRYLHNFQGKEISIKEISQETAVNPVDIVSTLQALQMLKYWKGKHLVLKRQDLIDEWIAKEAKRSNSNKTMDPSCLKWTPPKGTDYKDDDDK
KAT-5, sequence (Q92993 other isoform, or with tags, fused parts or gaps): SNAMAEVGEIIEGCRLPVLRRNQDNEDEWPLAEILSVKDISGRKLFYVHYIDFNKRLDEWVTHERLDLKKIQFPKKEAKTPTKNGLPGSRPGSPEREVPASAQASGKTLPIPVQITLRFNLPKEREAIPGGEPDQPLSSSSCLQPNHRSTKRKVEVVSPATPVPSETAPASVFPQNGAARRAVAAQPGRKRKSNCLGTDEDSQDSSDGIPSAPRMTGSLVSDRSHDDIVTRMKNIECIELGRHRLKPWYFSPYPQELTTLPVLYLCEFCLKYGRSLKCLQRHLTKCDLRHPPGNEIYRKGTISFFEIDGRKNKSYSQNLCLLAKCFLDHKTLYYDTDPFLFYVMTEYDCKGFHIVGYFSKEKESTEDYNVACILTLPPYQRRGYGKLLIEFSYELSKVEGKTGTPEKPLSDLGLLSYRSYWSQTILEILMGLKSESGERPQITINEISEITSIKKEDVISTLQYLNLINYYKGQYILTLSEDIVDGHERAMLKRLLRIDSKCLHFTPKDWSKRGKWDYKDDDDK

A word on the IC50: it is the concentration that gives 50% inhibition. Read a low IC50 as inhibition by little substance. On to `CN(C(=O)C1CCC1)C1CCCC(CS(=O)(=O)NNC(=O)c2cc(-c3cn(C)cn3)cc(Cl)c2F)C1` (stereo not shown) [Compound I-295], for which the IC50 at KAT-5 was < 10 µM; at KAT-6A, < 10 µM; at KAT-7, < 10 µM; on KAT-8 it was 10 to 50 µM.
For the compound `CN(C(=O)OC(C)(C)C)C1CCC(CS(=O)(=O)NNC(=O)c2cc(-c3cn(C)cn3)cc(Cl)c2F)CC1` (stereo not shown) [Compound I-296], the IC50 against KAT-5 was < 10 µM; against KAT-6A, < 10 µM; against KAT-7, < 10 µM; on KAT-8, 10 to 50 µM.
On to `CNC1CCC(CS(=O)(=O)NNC(=O)c2cc(-c3cn(C)cn3)cc(Cl)c2F)CC1` (stereo not shown) [Compound I-297], for which the IC50 on KAT-5 was 10 to 50 µM; on KAT-6A, 10 to 50 µM; on KAT-7, < 10 µM; on KAT-8, 10 to 50 µM.
For the compound `Cn1cnc(-c2cc(Cl)c(F)c(C(=O)NNS(=O)(=O)C[C@H]3C[C@H]4CC[C@@H]3O4)c2)c1` [Compound I-298], the IC50 against KAT-5 was < 10 µM; at KAT-6A, < 10 µM; on KAT-7, < 10 µM; at KAT-8, 10 to 50 µM.
`Cn1cnc(-c2cc(Cl)c(F)c(C(=O)NNS(=O)(=O)C[C@@H]3C[C@H]4CC[C@@H]3O4)c2)c1` [Compound I-299]: the IC50 is < 10 µM on KAT-5, < 10 µM against KAT-6A, < 10 µM on KAT-7 and 10 to 50 µM against KAT-8.
On to `Cn1cnc(-c2cc(Cl)c(F)c(C(=O)NNS(=O)(=O)C[C@H]3CCC[C@@H](O)C3)c2)c1` [Compound I-300], for which the IC50 against KAT-5 is < 10 µM; on KAT-6A it was < 10 µM; at KAT-7, < 10 µM; at KAT-8, 10 to 50 µM.
With `Cn1cnc(-c2cc(Cl)c(F)c(C(=O)NNS(=O)(=O)c3cccnc3)c2)c1` [Compound I-301], the IC50 was 10 to 50 µM against KAT-5, < 10 µM against KAT-6A, < 10 µM against KAT-7 and 10 to 50 µM against KAT-8.
For the compound `CC1CCCC(CS(=O)(=O)NNC(=O)c2cc(-c3cn(C)cn3)cc(Cl)c2F)C1` (stereo not shown) [Compound I-302], the IC50 on KAT-5 is < 10 µM; at KAT-6A, < 10 µM; against KAT-7 it was < 10 µM; on KAT-8, 10 to 50 µM.
With `CC1CCN(C(=O)OC(C)(C)C)CC1CS(=O)(=O)NNC(=O)c1cc(-c2cn(C)cn2)cc(Cl)c1F` (stereo not shown) [Compound I-303], the IC50 on KAT-5 is < 10 µM; on KAT-6A it was 10 to 50 µM; at KAT-7, < 10 µM; against KAT-8 it was 10 to 50 µM.
For `Cn1cnc(-c2cc(Cl)c(F)c(C(=O)NNS(=O)(=O)c3cscn3)c2)c1` [Compound I-304], the IC50 at KAT-5 is < 10 µM; against KAT-6A, < 10 µM; on KAT-7 it was < 10 µM; on KAT-8 it was 10 to 50 µM.
Take `Cn1cnc(-c2ccc(F)c(C(=O)NNS(=O)(=O)C[C@H]3CCC[C@H](O)C3)c2)c1` [Compound I-305]: the IC50 at KAT-5 was 10 to 50 µM; at KAT-6A, 10 to 50 µM; on KAT-7 it was < 10 µM; against KAT-8 it was 10 to 50 µM.
Take `Cn1cnc(-c2cc(Cl)c(F)c(C(=O)NNS(=O)(=O)C[C@H]3CCC[C@H](O)C3)c2)c1` [Compound I-306]: the IC50 on KAT-5 is < 10 µM; against KAT-6A it was < 10 µM; on KAT-7, < 10 µM; at KAT-8 it was 10 to 50 µM.
As to `CC1CCNCC1CS(=O)(=O)NNC(=O)c1cc(-c2cn(C)cn2)cc(Cl)c1F` (stereo not shown) [Compound I-307], the IC50 against KAT-5, against KAT-6A, on KAT-7 and against KAT-8 was 10 to 50 µM each time.
`Cn1cnc(-c2cc(Cl)c(F)c(C(=O)NNS(=O)(=O)CC3CC4CCC3C4)c2)c1` (stereo not shown) [Compound I-308]: the IC50 at KAT-5, against KAT-6A, against KAT-7 and on KAT-8 was < 10 µM throughout.
On to `Cn1cnc(-c2cc(Cl)c(F)c(C(=O)NNS(=O)(=O)c3ccccc3Cl)c2)c1` [Compound I-309], for which the IC50 against KAT-5 is < 10 µM; against KAT-6A, < 10 µM; at KAT-7, < 10 µM; against KAT-8, 10 to 50 µM.
For the compound `CN1CCN([C@H]2CC[C@@H](CS(=O)(=O)NNC(=O)c3cc(-c4cn(C)cn4)cc(Cl)c3F)CC2)C1=O` [Compound I-310], the IC50 is < 10 µM on KAT-5, < 10 µM at KAT-6A, < 10 µM at KAT-7 and 10 to 50 µM against KAT-8.
Take `CNC(=O)Cn1nc(-c2cc(Cl)c(F)c(C(=O)NNS(=O)(=O)CC3CCCCC3)c2)cc1C` [Compound I-311]: the IC50 against KAT-5 was < 10 µM; at KAT-6A, 10 to 50 µM; at KAT-7, < 10 µM; against KAT-8, 10 to 50 µM.
Consider `CN1CCN([C@H]2C[C@H](CS(=O)(=O)NNC(=O)c3cc(-c4cn(C)cn4)cc(Cl)c3F)C2)C1=O` [Compound I-312], for which the IC50 at KAT-5 was < 10 µM; at KAT-6A it was < 10 µM; at KAT-7 it was < 10 µM; on KAT-8, 10 to 50 µM.
With `CC1CCC(CS(=O)(=O)NNC(=O)c2cc(-c3cn(C)cn3)cc(Cl)c2F)CC1` (stereo not shown) [Compound I-313], the IC50 against KAT-5 was < 10 µM; against KAT-6A, < 10 µM; on KAT-7, < 10 µM; on KAT-8, 10 to 50 µM.
As for `CN(C)C(=O)CS(=O)(=O)NNC(=O)c1cc(-c2cn(C)cn2)cc(Cl)c1F` [Compound I-314], the IC50 at KAT-5 was 10 to 50 µM; against KAT-6A it was 10 to 50 µM; on KAT-7, < 10 µM; against KAT-8 it was 10 to 50 µM.
As to `Cn1cnc(-c2cc(Cl)c(F)c(C(=O)NNS(=O)(=O)c3ccc(F)cc3)c2)c1` [Compound I-316], the IC50 against KAT-5 is < 10 µM; against KAT-6A it was < 10 µM; at KAT-7, < 10 µM; against KAT-8, 10 to 50 µM.
On to `CN(C(=O)C1CCC1)C1CCC(CS(=O)(=O)NNC(=O)c2cc(-c3cn(C)cn3)cc(Cl)c2F)CC1` (stereo not shown) [Compound I-317], for which the IC50 on KAT-5 is < 10 µM; on KAT-6A it was < 10 µM; against KAT-7, < 10 µM; against KAT-8, 10 to 50 µM.
`CN1CCN([C@H]2CC[C@H](CS(=O)(=O)NNC(=O)c3cc(-c4cn(C)cn4)cc(Cl)c3F)CC2)C1=O` [Compound I-319]: the IC50 is < 10 µM at KAT-5, < 10 µM at KAT-6A, < 10 µM against KAT-7 and 10 to 50 µM at KAT-8.
Consider `Cn1cnc(-c2cc(Cl)c(F)c(C(=O)NNS(=O)(=O)c3cccc(F)c3)c2)c1` [Compound I-320], for which the IC50 against KAT-5 is < 10 µM; against KAT-6A, < 10 µM; against KAT-7 it was < 10 µM; against KAT-8, 10 to 50 µM.
Regarding `COc1ccccc1S(=O)(=O)NNC(=O)c1cc(-c2cn(C)cn2)cc(Cl)c1F` [Compound I-321], the IC50 was < 10 µM on KAT-5, < 10 µM against KAT-6A, < 10 µM on KAT-7 and 10 to 50 µM against KAT-8.
As for `COc1cccc(S(=O)(=O)NNC(=O)c2cc(-c3cn(C)cn3)cc(Cl)c2F)c1` [Compound I-322], the IC50 against KAT-5 is < 10 µM; on KAT-6A, < 10 µM; on KAT-7, < 10 µM; on KAT-8, 10 to 50 µM.
With `Cn1cnc(-c2cc(Cl)c(F)c(C(=O)NNS(=O)(=O)c3ccc(Cl)cc3)c2)c1` [Compound I-323], the IC50 is < 10 µM against KAT-5, < 10 µM against KAT-6A, < 10 µM on KAT-7 and 10 to 50 µM on KAT-8.
Consider `Cn1cnc(-c2cc(Cl)c(F)c(C(=O)NNS(=O)(=O)c3cccc(Cl)c3)c2)c1` [Compound I-324], for which the IC50 is < 10 µM at KAT-5, < 10 µM against KAT-6A, < 10 µM against KAT-7 and 10 to 50 µM against KAT-8.
With `CN1CCN([C@H]2C[C@@H](CS(=O)(=O)NNC(=O)c3cc(-c4cn(C)cn4)cc(Cl)c3F)C2)C1=O` [Compound I-325], the IC50 on KAT-5 was < 10 µM; against KAT-6A it was < 10 µM; on KAT-7, < 10 µM; on KAT-8, 10 to 50 µM.
Consider `CCC(=O)N(C)C1CCC(CS(=O)(=O)NNC(=O)c2cc(-c3cn(C)cn3)cc(Cl)c2F)CC1` (stereo not shown) [Compound I-326], for which the IC50 on KAT-5 is < 10 µM; against KAT-6A it was < 10 µM; against KAT-7 it was < 10 µM; against KAT-8 it was 10 to 50 µM.
In the case of `COc1ccc(CNC(=O)NC2CCC(CS(=O)(=O)NNC(=O)c3cc(-c4cn(C)cn4)cc(Cl)c3F)C2)cc1` (stereo not shown) [Compound I-327], the IC50 is < 10 µM against KAT-5, < 10 µM against KAT-6A, < 10 µM against KAT-7 and 10 to 50 µM on KAT-8.
In the case of `Cn1cnc(-c2cc(Cl)c(F)c(C(=O)NNS(=O)(=O)CC(=O)N3CCCC3)c2)c1` [Compound I-328], the IC50 was 10 to 50 µM at KAT-5, 10 to 50 µM against KAT-6A, < 10 µM on KAT-7 and 10 to 50 µM at KAT-8.
As to `CO[C@H]1CC[C@H](CS(=O)(=O)NNC(=O)c2cc(-c3cn(C)cn3)cc(Cl)c2F)CC1` [Compound I-329], the IC50 was < 10 µM against KAT-5, < 10 µM against KAT-6A, < 10 µM on KAT-7 and 10 to 50 µM at KAT-8.
As for `Cn1cnc(-c2cc(Cl)c(F)c(C(=O)NNS(=O)(=O)c3ccccn3)c2)c1` [Compound I-330], the IC50 at KAT-5 was < 10 µM; at KAT-6A, < 10 µM; against KAT-7, < 10 µM; against KAT-8, 10 to 50 µM.
